In ChEMBL document CHEMBL4251700, “Novel Staphyloxanthin Inhibitors with Improved Potency against Multidrug Resistant Staphylococcus aureus” (ACS Med Chem Lett, 2018):
Changes are numbered by the printed parent chain. pIC50: −log10 of the molar value. Calls of active or inactive are those of the source. No cut-off for these calls is given here.

Experiments:
[1] = molecular target: T1, 4,4'-diapophytoene desaturase (4,4'-diaponeurosporene-forming) (Staphylococcus aureus (strain Newman), UniProt O07855); assay: Inhibition of CrtN in linezolid-resistant Staphylococcus aureus NRS271 assessed as reduction in staphyloxanthin levels after 48 hrs by spectrophotometric method-based pigment inhibition assay
T1 sequence (O07855 whole entry): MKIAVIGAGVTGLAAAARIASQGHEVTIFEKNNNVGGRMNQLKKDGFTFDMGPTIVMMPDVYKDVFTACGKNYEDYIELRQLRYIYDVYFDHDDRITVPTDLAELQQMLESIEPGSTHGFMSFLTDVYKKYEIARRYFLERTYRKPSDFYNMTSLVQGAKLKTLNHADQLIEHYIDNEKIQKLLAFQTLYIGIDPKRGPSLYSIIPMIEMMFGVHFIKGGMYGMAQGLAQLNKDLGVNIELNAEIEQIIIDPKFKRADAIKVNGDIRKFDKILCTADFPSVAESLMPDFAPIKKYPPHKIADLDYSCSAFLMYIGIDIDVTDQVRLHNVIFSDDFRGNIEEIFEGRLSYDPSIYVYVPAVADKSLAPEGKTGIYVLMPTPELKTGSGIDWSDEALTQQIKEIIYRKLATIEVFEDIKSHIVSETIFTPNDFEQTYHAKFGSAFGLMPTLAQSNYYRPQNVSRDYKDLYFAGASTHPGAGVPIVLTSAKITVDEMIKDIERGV

[2] = Half life in human liver microsomes at 2 uM by LC-MS/MS analysis; type: ADME, microsome
Staphylococcus aureus [3] = assay: Antibacterial activity against linezolid-resistant Staphylococcus aureus NRS271 infected in BALB/c mouse assessed as reduction of bacterial burden in heart at 0.4 mg, ip bid administered at 24 hrs prior to bacterial infection dosed at 12 intervals for 4.5 days
Staphylococcus aureus [4] = assay: Antibacterial activity against vancomycin-intermediate Staphylococcus aureus Mu50 infected in BALB/c mouse assessed as reduction of bacterial burden in heart at 0.1 mg, ip bid for 3.5 days administered 6 hrs post bacterial infection measured 84 hrs post infection relative to control; type: functional; set-up: scale not given: the % may be the effect or the level left
Staphylococcus aureus [5] = assay: Antibacterial activity against vancomycin-intermediate Staphylococcus aureus Mu50 infected in BALB/c mouse assessed as reduction of bacterial burden in liver at 0.4 mg, ip bid administered at 12 hrs prior to bacterial infection dosed at 12 intervals for 4.5 days; type: functional, organism-based
Staphylococcus aureus [6] = assay: Antibacterial activity against vancomycin-intermediate Staphylococcus aureus Mu50 infected in BALB/c mouse assessed as reduction of bacterial burden in liver at 0.1 mg, ip bid administered at 12 hrs prior to bacterial infection dosed at 12 intervals for 4.5 days; type: functional, organism-based
Staphylococcus aureus [7] = assay: Antibacterial activity against linezolid-resistant Staphylococcus aureus NRS271 infected in BALB/c mouse assessed as reduction of bacterial burden in heart at 0.4 mg, ip bid for 3.5 days administered 6 hrs post bacterial infection measured 84 hrs post infection; type: functional; set-up: scale not given: the % may be the effect or the level left
[8] = Cytotoxicity against HEK293T cells after 72 hrs by CCK8 assay; type: cell-based, HEK-293T; settings: human
[9] = system: Trichophyton mentagrophytes; assay: Antifungal activity against Trichophyton mentagrophytes after 7 days; type: functional, organism-based
Staphylococcus aureus [10] = assay: Antibacterial activity against vancomycin-intermediate Staphylococcus aureus Mu50 infected in BALB/c mouse assessed as reduction of bacterial burden in liver at 0.1 mg, ip bid for 3.5 days administered 6 hrs post bacterial infection measured 84 hrs post infection; type: functional, organism-based
Staphylococcus aureus [11] = assay: Growth inhibition of methicillin-resistant Staphylococcus aureus USA300 LAC at 0.2 mM incubated overnight measured at 30 mins interval; type: organism-based; settings: 0.5 h, 200 µM
Staphylococcus aureus [12] = assay: Induction of sensitization to immune clearance towards Staphylococcus aureus Newman infected in human whole blood assessed as bacterial killing by measuring bacterial survival after 6 hrs by serial dilution method relative to control; type: functional
[13] = molecular target: Voltage-gated inwardly rectifying potassium channel KCNH2 (Homo sapiens, UniProt Q12809); assay: Inhibition of recombinant human ERG expressed in CHO cells at -80 mV holding potential measured after 3 minutes by automated whole cell patch clamp Qpatch method; type: cell-based
Staphylococcus aureus [14] = assay: Growth inhibition of vancomycin-intermediate Staphylococcus aureus Mu50 at 0.2 mM incubated overnight measured at 30 mins interval; type: organism-based; settings: 0.5 h, 200 µM
[15] = molecular target: T2, 4,4'-diapophytoene desaturase (4,4'-diaponeurosporene-forming) (Staphylococcus aureus (strain Mu50 / ATCC 700699)) (UniProt Q99R76); assay: Inhibition of CrtN in Staphylococcus aureus Mu50 assessed as H2O2-induced bacterial death by measuring reduction in bacterial survival at 1 uM preincubated for 24 hrs followed by H2O2 addition measured after 30 mins by serial dilution method; settings: Staphylococcus aureus subsp. aureus Mu50
T2 sequence (whole entry): T1 sequence (O07855 whole entry)

Trichophyton rubrum = assay: Antifungal activity against Trichophyton rubrum after 7 days by broth microdilution method; type: functional, organism-based
Staphylococcus aureus [16] = assay: Antibacterial activity against linezolid-resistant Staphylococcus aureus NRS271 infected in BALB/c mouse assessed as log reduction of colony forming units in liver at 0.4 mg, ip bid for 3.5 days administered 6 hrs post bacterial infection measured 84 hrs post infection; type: functional
Staphylococcus aureus [17] = assay: Antibacterial activity against linezolid-resistant Staphylococcus aureus NRS271 infected in BALB/c mouse assessed as reduction of bacterial burden in liver at 0.4 mg, ip bid administered at 12 hrs prior to bacterial infection dosed at 12 intervals for 4.5 days; type: functional, organism-based
[18] = molecular target: T3, 4,4'-diapophytoene desaturase (4,4'-diaponeurosporene-forming) (Staphylococcus aureus (strain MW2), UniProt Q8NUQ6); assay: Inhibition of CrtN in methicillin-resistant Staphylococcus aureus USA400 MW2 assessed as reduction in staphyloxanthin levels after 48 hrs by spectrophotometric method-based pigment inhibition assay; set-up: species or system Staphylococcus aureus subsp. aureus MW2
T3 sequence (Q8NUQ6 whole entry): T1 sequence (O07855 whole entry) with R500Q

Staphylococcus aureus [19] = assay: Induction of sensitization to immune clearance towards Staphylococcus aureus USA400 MW2 infected in human whole blood assessed as bacterial killing by measuring bacterial survival after 6 hrs by serial dilution method relative to control; type: functional
[20] = molecular target: T1, 4,4'-diapophytoene desaturase (4,4'-diaponeurosporene-forming); assay: Inhibition of CrtN in Staphylococcus aureus Newman assessed as reduction in staphyloxanthin levels after 48 hrs by spectrophotometric method-based pigment inhibition assay; set-up: species or system Staphylococcus aureus subsp. aureus str. Newman
Staphylococcus aureus [21] = assay: Antibacterial activity against vancomycin-intermediate Staphylococcus aureus Mu50 infected in BALB/c mouse assessed as reduction of bacterial burden in heart at 0.4 mg, ip bid for 3.5 days administered 6 hrs post bacterial infection measured 84 hrs post infection relative to control; type: functional; set-up: scale not given: the % may be the effect or the level left

Sequence of Voltage-gated inwardly rectifying potassium channel KCNH2 (Q12809 whole entry): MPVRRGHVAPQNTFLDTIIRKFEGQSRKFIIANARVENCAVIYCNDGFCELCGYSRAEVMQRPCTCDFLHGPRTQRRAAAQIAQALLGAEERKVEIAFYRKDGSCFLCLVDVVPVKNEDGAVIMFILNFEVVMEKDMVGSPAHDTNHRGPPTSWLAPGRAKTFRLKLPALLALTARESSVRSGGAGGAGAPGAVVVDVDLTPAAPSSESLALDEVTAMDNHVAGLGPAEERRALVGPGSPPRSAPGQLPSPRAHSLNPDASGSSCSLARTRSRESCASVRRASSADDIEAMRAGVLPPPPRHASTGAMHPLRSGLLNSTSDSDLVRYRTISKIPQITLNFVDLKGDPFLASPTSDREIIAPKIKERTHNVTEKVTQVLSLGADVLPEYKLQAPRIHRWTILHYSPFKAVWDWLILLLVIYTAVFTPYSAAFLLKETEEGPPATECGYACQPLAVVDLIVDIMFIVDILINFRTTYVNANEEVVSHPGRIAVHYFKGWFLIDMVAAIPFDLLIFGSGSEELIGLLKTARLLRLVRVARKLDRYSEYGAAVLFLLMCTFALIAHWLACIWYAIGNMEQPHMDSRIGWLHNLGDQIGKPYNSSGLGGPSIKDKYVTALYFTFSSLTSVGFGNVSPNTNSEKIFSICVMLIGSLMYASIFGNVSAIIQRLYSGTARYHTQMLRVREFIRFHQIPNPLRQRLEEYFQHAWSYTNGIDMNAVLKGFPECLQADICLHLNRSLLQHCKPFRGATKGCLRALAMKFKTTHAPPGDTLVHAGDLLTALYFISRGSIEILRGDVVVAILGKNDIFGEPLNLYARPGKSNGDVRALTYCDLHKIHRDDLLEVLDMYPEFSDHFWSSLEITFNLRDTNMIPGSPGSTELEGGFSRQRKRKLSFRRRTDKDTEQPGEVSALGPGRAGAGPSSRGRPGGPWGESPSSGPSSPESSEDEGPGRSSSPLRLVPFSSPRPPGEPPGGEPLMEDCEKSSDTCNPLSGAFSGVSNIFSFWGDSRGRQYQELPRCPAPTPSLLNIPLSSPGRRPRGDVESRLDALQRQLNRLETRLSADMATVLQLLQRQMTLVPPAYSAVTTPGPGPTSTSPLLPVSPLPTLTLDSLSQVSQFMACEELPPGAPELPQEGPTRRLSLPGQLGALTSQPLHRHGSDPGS

## CN(C/C=C/C=C/c1ccc(C(F)(F)F)cc1)Cc1ccc2c(c1)OCCO2.Cl
[1]
  pIC50: 9.22
[2]
  half-life at 2 µM: 7.9 min
Staphylococcus aureus [3]
  Activity: Active
Staphylococcus aureus [4]
  Activity: 99%
Staphylococcus aureus [5]
  Activity: Active
Staphylococcus aureus [6]
  Activity: Active
Staphylococcus aureus [7]
  Activity: >90%
[8]
  CC50 at 72 h: 50.3 µM
[9]
  Activity: inactive
Staphylococcus aureus [10]
  Activity: Active
Staphylococcus aureus [11]
  growth inhibition (GI): Non-Toxic
Staphylococcus aureus [12]
  Survival: <0.5%
[13]
  pIC50: 4.92
Staphylococcus aureus [14]
  growth inhibition (GI): Non-Toxic
[15]
  inhibition: Active
Trichophyton rubrum
  Activity: inactive
Staphylococcus aureus [16]
  Activity: <=0.75 log10CFU
Staphylococcus aureus [17]
  Activity: Active
[18]
  pIC50: 8.19
Staphylococcus aureus [19]
  Survival: <0.5%
[20]
  pIC50: 8.66
Staphylococcus aureus [21]
  Activity: 99%
